Assay results published in patent US8354424B2, “Method of treating actinic keratosis” (Medicis Pharmaceutical Corporation, priority 2005, dated 2013).

Test system: actinic keratosis lesions
Assay: Randomized, double-blind study, eight-week treatment period, topical cream on actinic keratosis lesions on the head
Format: in vivo, human
Settings: formulation with about 0.3 wt-% compound, twice per week, about 8 weeks, compared to other formulations or regimens
Method: A randomized, double-blind study was performed to evaluate single and multi-weekly doses of the formulations prepared above topically applied to actinic keratosis lesions on the head.
Otherwise healthy white (n=280) subjects (15% female, 85% male) ranging in ages 38 to 89 years of age (median age of 66.5), inclusive, with actinic keratosis lesions on the head were enrolled in the study. […] The actinic keratosis lesions areas were on the scalp (36%) and face (64%).
The study included an eight-week treatment period followed by an eight-week post-treatment period. […]
Subjects completed interval visits at treatment initiation, 1, 2, 4, and 8 weeks after treatment was initiated and at four and eight-weeks after the end of treatment. Subjects were monitored for erythema and other treatment site conditions during the entire 16 weeks of the study. Erythema, as assessed by study investigators, was defined as intense, moderate, mild, or no redness of the skin at the treatment site and given an intensity score of severe, moderate, mild, or none, respectively.
At the eight-week post-treatment visit, the treatment area was clinically evaluated for actinic keratosis lesions. Efficacy was measured as complete clearance of actinic keratosis lesions and partial clearance of actinic keratosis lesions at the eight-week post-treatment visit. […]

With Cc1nc2c(N)nc3cccnc3c2n1CC(C)C [2-methyl-1-(2-methylpropyl)-1H-imidazo[4,5-c][1,5]naphthyridin-4-amine] the side effects was “a low level of side effects”.
